Measured values: US20090263780A1, “Organ preservation fluid” (priority 2008, published 2009)

Test system: Cortical neurons cultures
Assay: Neuron viability (MTT reduction test) after anoxic insult
Format: cell-based, Sprague-Dawley rats
Protocol: Neuron culture: Cortical neurons cultures were prepared from fetal Sprague-Dawley rats at 17-day gestation. Timed pregnant Sprague-Dawley rats were euthanized with isoflorane. After dissection of the cortical region of the fetal brain, cortical neurons were dispersed by trituration, centrifuged at 250 g for 5 minutes at 4° C., and suspended in a neurobasal medium supplemented with 25 μmol/L glutamic acid, 0.5 mmol/L glutamine, 1% antibiotic-antimycotic solution, and 2% B27 supplement. Cells were plated at 5×10^5 cells/ml on poly-L-lysine-coated 24-well plates. Cytosine (10 μmol/) was added at day 3. Neuron cultures were fed every 4 days with replacement of half of neurobasal medium containing 0.5 mmol/L glutamine, 1% antibiotic-antimycotic solution, and 2% B27 supplement. The culture plates were incubated at 37° C. in a humid atmosphere with 5% CO2. […]
Validation of neurons' survival: Neuronal viability was quantitatively evaluated by a methyl thiazole tetrazolium (MTT) reduction test. This quantifies the formation of a dark blue formazan product formed by the reduction of the tetrazolium ring of MTT by the mitochondrial succinate dehydrogenase in living cells. […] Cell viability corresponded to the value of the optical density read at 570 nm with background subtraction at 630 nm. Results were expressed as percent of the optical density measured in normal control cells.

Substance: B: 2 wt % albumin (native bovine serum albumin, molecular weight 68 kDa, pI 4.8) + ACSF
- Neuronal viability after anoxia, result in words (ACSF supplemented with the polypeptide, anoxic environment, comparison): significantly increased neuronal viability
- Neuron's viability (Percentage, Mean ± SD) (anoxia 60 mins at 37° C., culture media replaced by 2 wt % test polypeptide + ACSF, MTT 24 hours after anoxia, percent of optical density in normal control cells): 96 ± 3.9 Percentage
